Key:
[1] = target: T1, Protein farnesyltransferase (Homo sapiens, UniProt P49354+P49356); experiment: Inhibition of human recombinant farnesyltransferase using farnesylpyrophosphate and dansyl-GCVLS as substrate measured for 15 mins by fluorescence assay; type: protein-complex assay
[2] = target: T1, Protein farnesyltransferase; experiment: Inhibition of human recombinant farnesyltransferase using farnesylpyrophosphate and dansyl-GCVLS as substrate at 100 uM measured for 15 mins by fluorescence assay; type: protein-complex assay

| IC50 [1] [nM] | inhibition [2] [%] | SMILES |
| --- | --- | --- |
| 931 | 85 | CCOC(=O)c1cc(C(=O)/C=C/c2ccc(Cl)cc2)n2ccc(OC)cc12 |
| 19300 | 94 | CCOC(=O)c1cc(C(=O)/C=C/c2cc(OC)c(OC)c(OC)c2)n2ccccc12 |
| 2330 | 88 | COc1ccn2c(C(=O)/C=C/c3ccc(Cl)cc3)cc(C(=O)O)c2c1 |
| 8740 | 95 | CCOC(=O)c1cc(C(=O)/C=C/c2ccc(C#N)cc2)n2ccc(OC)cc12 |
| 155 | 98 | CCOC(=O)c1cc(C(=O)/C=C/c2ccc3c(c2)Sc2ccccc2N3C)n2ccc(C)cc12 |
| 602 | 100 | CCOC(=O)c1cc(C(=O)/C=C/c2ccc(Br)cc2)n2ccc(OC)cc12 |

The remaining lines, values behind:

| SMILES | IC50 [1] [nM] | inhibition [2] [%] |
| --- | --- | --- |
| COc1cc(/C=C/C(=O)c2ccc3c(C)cc(C)cn23)cc(OC)c1OC | 726 | 88 |
| CCOC(=O)c1cc(C(=O)/C=C/c2ccc(OC)cc2)n2ccc(OC)cc12 | – | 68 |
| CSCC[C@H](NC(=O)c1ccc(NC[C@@H](N)CS)cc1-c1ccccc1)C(=O)O | – | 100 |
| CCOC(=O)c1cc(C(=O)/C=C/c2cc(OC)c(OC)c(OC)c2)n2c(C)cccc12 | – | 7 |
| CCOC(=O)c1cc(C(=O)/C=C/c2ccc3c(c2)Sc2ccccc2N3C)n2ccc(OC)cc12 | 711 | 84 |
| COc1cc(/C=C/C(=O)c2cc(C(=O)O)c3c(C)cc(C)cn23)cc(OC)c1OC | 15900 | 88 |
| CCOC(=O)c1cc(C(=O)/C=C/c2cc(OC)c(OC)c(OC)c2)n2ccc(OC)cc12 | 11600 | 76 |
| CCOC(=O)c1cc(C(=O)/C=C/c2ccc3c(c2)Sc2ccccc2N3C)n2ccccc12 | 9 | 85 |
| CCOC(=O)c1cc(C(=O)/C=C/c2ccc(-c3ccccc3)cc2)n2ccc(OC)cc12 | 1320 | 95 |
| CCOC(=O)c1cc(C(=O)/C=C/c2ccc3c(c2)Sc2ccccc2N3C)n2c(C)cccc12 | 23 | 91 |
